The text below walks through data of US20260306484A1, “INVERSE AGONISTS OF RAR RELATED ORPHAN RECEPTORS (RORS)” (11949098 CANADA INC. (NUREDCO) c/o Jean I. TCHERVENKOV, priority 2023, published 2026).

The structures appear in SMILES notation.

For one experiment, the system named is Balb/c skin grafts. Description: Balb/c skin graft survival in sensitized C57BL/6 recipients (Example 9). To be noted: for median graft survival: daily ip, cpd 13 1 mg/kg, tacrolimus 0.5 mg/kg, or both, ctrl = 6 days, P-value<<0.001, mantel-cox test. The class given is in vivo, mouse (C57BL/6). As for the experimental part:
C57BL/6 mice were sensitized by 3 IP injections of 10 M Balb/c splenocytes at day 0, 7 and 14. The mice were transplanted at day 15 with 1 cm^2 skin grafts from Balb/c mice and treated daily with ip injections of vehicle (ctrl), cpd 13 1 mg/kg (131 mg/kg), tacrolimus 0.5 mg/kg (tacro0.5 mg/kg) and cpd13 1 mg/kg+tacrolimus 0.5 mg/kg (131 mg/kg+tacro0.5 mg/kg). P-value<<0.001, mantel-cox test; median graft survival: ctrl=6 days, tacro0.5 mg/kg=7 days, 131 mg/kg=13.5 days and cpd13 131 mg/kg+tacro0.5 mg/kg=23 days.

Experiment [1] has as its system HuH-7 cells. The experiment is described as follows: HuH-7 colony formation assay. Format: cell-based, human. An excerpt: (§1) FIG. 32 illustrates another in vitro viability assay Colony Formation Assay. […] HuH-7 and Hepa1-6 colony formation assays.
(§2) FIG. 33 illustrates another in vitro viability assay Colony Formation Assay. […] HuH-7 and Hepa1-6 colony formation assays.

The subject of experiment [2] is Hepa1-6 cells. Description: Hepa1-6 colony formation assay. The class given is cell-based, mouse.
From the text: as §1, §2

Another experiment concerns breast cancer cell lines. The experiment is described as follows: Cell colony forming units, breast cancer. The class given is cell-based, human. The note with it: 5 micromolar.
In experiment [3] the test system is CD4+ cells from in-vitro polarized peripheral blood mononuclear cells. Description: Th17-polarized PBMCs treated 48 h, then PMA/ionomycin and intracellular staining by flow cytometry. The class given is cell-based, human. To be noted: 750 nM, PBMCs from 9 individuals, vs vehicle, paired t-test P<0.05. The protocol:
FIG. 4 illustrates a bar graph represents the % of IL17A+ cells also known as Th17 cells out of CD4+ cells known as Helper T cells. The peripheral blood mononuclear cells from 9 individuals were polarized (in-vitro) using CD3/CD28 dynabeads in presence of TGFβ, IL1B, IL6 and IL23 for 14 days. The cells from each individual was divided into two equal portions and one portion was treated with the Cpd10 at dose of 750 nM and the second portion was treated with the vehicle for 48 hours followed by PMA/ionomycin in presence of transport blocker for 6 hours. Cpd10 decreased the % of IL17A+CD4+ in treated compared to vehicle treated controls and measured by flow cytometry. Paired t-test, significant, P<0.05.
(§3) FIG. 5 illustrates a bar graph represents the % of IL21+ cells which includes all types of CD4+ cells secreting IL21 (e.g. Th17, Tfh). The peripheral blood mononuclear cells from 9 individuals were polarized (in-vitro) using CD3/CD28 dynabeads in presence of TGFβ, IL1β, IL6 and IL23 for 14 days. The cells from each individual was divided into two equal portions and one portion was treated with the Cpd10 at dose of 750 nM and the second portion was treated with the vehicle for 48 hours followed by PMA/ionomycin in presence of transport blocker for 6 hours. Cpd10 decreased the % of IL21+CD4+ in treated compared to vehicle treated controls measured by flow cytometry. Paired t-test Significant P<0.05.
as §3, with “FIG. 6” for “FIG. 5”, “of IL22+” for “of IL21+”, “secreting IL22” for “secreting IL21”, “Th17, Th22).” for “Th17, Tfh).”, “of IL22+CD4+” for “of IL21+CD4+”, “Paired t-test, significant,” for “Paired t-test Significant”
FIG. 7 illustrates a bar graph represents the % RORγt+ cells which includes all types of CD4+ cells expressing RORγt (e.g. Th17). The peripheral blood mononuclear cells from 9 individuals were polarized (in-vitro) using CD3/CD28 dynabeads in presence of TGFβ, IL1β, IL6 and IL23 for 14 days. The cells from each individual was divided into two equal portions and one portion was treated with the Cpd10 at dose of 750 nM and the second portion was treated with the vehicle for 48 hours followed by PMA/ionomycin in presence of transport blocker for 6 hours. Cpd10 increased the % of RORγt+ CD4+ in treated compared to vehicle treated controls measured by flow cytometry. […]

In experiment [4] the test system is pancreatic cancer (PDL1 expression). The experiment is described as follows: PDL1 immune checkpoint expression in pancreatic cancer. The class given is cell-based, human. The note with it: pancreatic cancer (FIG. 19).
Experiment [5] concerns HuH-7 cells. The experiment is described as follows: HuH-7 cell viability assay (MTT, GFP). Format: cell-based, human. An excerpt:
(§4) FIG. 30 illustrates in vitro cell viability assay both human HuH-7 and mouse Hepa1-6 cell lines with increasing concentrations of compound 10. In the human cell line you see an effect with as low as 1mMol concentration. HuH-7 and Hepa1-6 cell viability assays.

Experiment [6] has as its system Hepa1-6 cells. The experiment is described as follows: Hepa1-6 cell viability assay (MTT, GFP). Format: cell-based, mouse. The note with it: varying concentrations.
From the text: as §4

Turning to `C=CC[C@@H]1/C=C(\C)C[C@H](C)C[C@H](OC)[C@H]2O[C@@](O)(C(=O)C(=O)N3CCCC[C@H]3C(=O)O[C@H](/C(C)=C/[C@@H]3CC[C@@H](O)[C@H](OC)C3)[C@H](C)[C@@H](O)CC1=O)[C@H](C)C[C@@H]2OC` [tacrolimus, reference compound], the median graft survival with Balb/c skin grafts was determined as 7 days.

`C[C@@H]1CCN(C(=O)c2c(NC(=O)c3cccnc3)sc3c2CCCC3)[C@H](C)C1` [Compound 13, N-(3-((2R,4R)-2,4-dimethylpiperidine-1-carbonyl)-4,5,6,7-tetrahydrobenzo[b]thiophen-2-yl) nicotinamide]: the median graft survival in the experiment with Balb/c skin grafts is recorded as 13.5 days. Further, in the experiment with Balb/c skin grafts (increase survival from 1 up to 3 weeks (FIG. 50)), the “skin graft survival increase” value was “up to 3 weeks”.

`CN1CCN(CC(=O)Nc2sc3c(c2C(=O)NCc2ccccc2)CCCC3)CC1` [Compound 10, N-benzyl-2-(2-(4-methylpiperazin-1-yl)acetamido)-4,5,6,7-tetrahydrobenzo[b]thiophene-3-carboxamide]: in the experiment with HuH-7 cells [1] (Homo sapiens, Huh-7, both cell lines suppressed, read-out: concentration at which HuH-7 colony formation is suppressed), the minimal effective concentration was found to be 2500 µM. Besides, the “HuH-7 colony growth ability” value in the experiment on HuH-7 cells [1] (varying concentrations) is “significant and dose dependent difference”. In addition, in the experiment on Hepa1-6 cells [2] (Mus musculus, Hepa1-6, both cell lines suppressed, read-out: concentration at which Hepa1-6 colony formation is suppressed), the minimal effective concentration stood at 2500 µM. Further, the “Hepa1-6 colony growth ability” value in the experiment on Hepa1-6 cells [2] (varying concentrations) was “significant and dose dependent difference”. Also, the “ability to form colony forming units” value with breast cancer cell lines is recorded as “significantly reduces”. In experiment [3], the “% of IL17A+ cells (Th17) out of CD4+ cells” value is “decreased”, the “% of IL21+CD4+ cells” value was “decreased”, the “% of IL22+CD4+ cells” value was “decreased” and the “% of RORγt+ CD4+ cells” value is reported as “increased”. Further, in experiment [4], the “expression of PDL1” value is recorded as “increases that expression”. In addition, the minimal effective concentration in the experiment on HuH-7 cells [5] (human cell line HuH-7, read-out: lowest concentration with an effect on cell viability) turned out to be 1000 µM. Further, in the experiment on HuH-7 cells [5] (varying concentrations), the “HuH-7 cell viability, GFP assay” value is “significant and dose dependent difference”; the “HuH-7 cell viability, MTT assay” value is “significant and dose dependent difference”. Moreover, in the experiment on Hepa1-6 cells [6], the “Hepa1-6 cell viability, GFP assay” value was “significant and dose dependent difference”; the “Hepa1-6 cell viability, MTT assay” value was “significant and dose dependent difference”.
